Data reported in patent US11866416B2, “Streptococcus mutans glucosyl transferase inhibitors for dental caries therapy” (UAB Research Foundation, priority 2018, dated 2024).
Converted amounts (≈) assume the structure as drawn. Like-named read-outs stand apart in the source and are kept apart here.

Columns and labels:
[1] = tested on: S. mutans; assay: microbe, parasite or virus in culture; type: cell-based, Streptococcus mutans; conditions: for Growth MIC50: Table 8, stilbenes
In short: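 Mid-exponential cultures (OD470 0.6) in THB were exposed to compound concentrations for 16 h, with growth read at OD470 and normalised to 1% DMSO control (100%). CFU/mL were also counted after 24 h at 37 °C and compared with the DMSO control.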

[2] = tested on: S. mutans Gtfs; assay: Gtf zymographic assay with SDS-PAGE; type: biochemical, Streptococcus mutans; conditions: for glucan production in zymogram assay: stilbenes, versus DMSO control
Description: A well-established zymographic assay was used to determine enzymatic activity of Gtfs (Mattos-Graner et al. (2004) J. Clin. Microbiol. 42, […]). In brief, overnight S. mutans UA159 cultures were diluted 1:100 in fresh 5 mL THB with 50 μL of selective compounds at a series of concentrations. Treated bacteria were grown to OD470 of 1.0, and spun down by centrifugation at 4° C., and culture supernatants were collected and filtered through a 0.22-μm-pore-size filter membrane to remove residual bacterial cells and dialyzed at 4° C. against 0.02 M sodium phosphate buffer (pH 6.8), with 10 μM phenylmethylsulfonyl fluoride (PMSF), followed by a second dialysis against 0.2 mM sodium phosphate containing 10 μM PMSF. After dialysis, 4 mL of samples were concentrated to 40 μL by 100K Amicon Ultra-4 centrifugal filter (Merck Millipore Ltd.). For electrophoresis and zymographic analysis, 10 μL of each concentrated culture supernatant was applied to 8% SDS-PAGE in duplicate. One gel was used for protein staining with Coomassie blue dye, while the other one was subjected to zymographic assay as described (Mattos-Graner et al. (2004) J. Clin. Microbiol. 42, […]). The resultant white opaque glucan bands were visualized against a black background.
Inhibition of the activity of Gtfs determined by zymographic assays. Well established zymographic assay was used to determine enzymatic activity of Gtfs. In brief, overnight S. mutans UA159 cultures were diluted 1:100 in fresh 5 mL THB. Bacteria were grown to OD470 of 1.0, and spun down by centrifugation at 4° C. and culture supernatants were collected and filtered through a 0.22-μm-pore-size filter membrane to remove residual bacterial cells and dialyzed at 4° C. against 0.02 M sodium phosphate buffer (pH 6.8), with 10 μM phenylmethylsulfonyl fluoride (PMSF), followed by a second dialysis against 0.2 mM sodium phosphate containing 10 μM PMSF. After dialysis, 4 mL of samples were concentrated to 40 μL by 100K Amicon Ultra-4 centrifugal filter (Merk Millipore Ltd.). For electrophoresis and zymographic analysis, 10 μL of each concentrated culture supernatant was applied to 8% SDS-PAGE in duplicate. One gel was used for protein staining with Coomassie blue dye, while the other one was subjected to zymographic assay. For zymogram analysis, following electrophoretic separation, gels were washed twice for 15 min each with renaturing buffer containing 2.5% Triton X-100. Gels were then incubated for 18 h at 37° C. with 0.2 M sodium phosphate buffer (pH 6.5) containing 0.2% dextran T70, 5% sucrose, and varying concentrations of the small molecule inhibitors. The reactions were stopped by washing gels with distilled water at 4° C. for 10 min, and digital images of the resultant white opaque glucan bands were visualized against a black background and captured using a digital camera.
Inhibition of the activity of Gtfs determined by zymographic assays. A well-established zymographic assay was used to determine enzymatic activity of Gtfs (Mattos-Graner, R. O., Napimoga, M. H., Fukushima, K., Duncan, M. J., Smith, D. J., J Clin Microbiol, 2004, 42, 4586). In brief, overnight S. mutans UA159 cultures were diluted 1:100 in fresh 5 mL THB with 50 μL of selective compounds at a series of concentrations. Treated bacteria were grown to OD470 of 1.0, and spun down by centrifugation at 4° C., and culture supernatants were collected and filtered through a 0.22-μm-pore-size filter membrane to remove residual bacterial cells and dialyzed at 4° C. against 0.02 M sodium phosphate buffer (pH 6.8), with 10 μM phenylmethylsulfonyl fluoride (PMSF), followed by a second dialysis against 0.2 mM sodium phosphate containing 10 μM PMSF. After dialysis, 4 mL of samples were concentrated to 40 μL by 100K Amicon Ultra-4 centrifugal filter (Merk Millipore Ltd.). For electrophoresis and zymographic analysis, 10 μL of each concentrated culture supernatant was applied to 8% SDS-PAGE in duplicate. […]

[3] = Streptococcus mutans, Table 3, >300 = no inhibition up to 300 μM, NI = no inhibition up to 400 μM, read-out: Growth Inhibition MIC50
[4] = Streptococcus mutans, Table 4, stilbenes, average of at least 5 measurements, NI = no inhibition, read-out: Growth MIC50
[5] = average of at least 5 measurements, NI = no inhibition

Row | SMILES | MIC50 [1, 3] [µM] | MIC50 [1, 4] [µM] | Growth MIC50 [1, 5] [µM] | glucan production in zymogram assay [2] | S. mutans cell viability (CFU) versus control ([1]; up to 200 μM) | glucan production of the Gtfs in zymographic assay ([2]; 25 μM, Gtfs from wild type S. mutans) | glucan bands in zymographic assay ([2]; 50 μM, Gtfs from S. mutans UA159 supernatants) | inhibition of S. mutans cell viability (%) at 400 µM ([1]; Streptococcus mutans, 400 μM) [%] | inhibition at 52 µM ([1]; Streptococcus mutans, at 52 μM, read-out: growth of S. mutans inhibited) [%]
1 | Oc1ccc(/C=C/c2cc(O)cc(O)c2)cc1 [Resveratrol, reference compound] | 546 ± 16 (≈ 125 µg/mL) | 546 ± 15.9 (≈ 125 µg/mL) | 546.4 ± 15.9 | marginal inhibition |  |  |  |  | 
2 | NC(=O)c1ccccc1NC(=O)c1cc2cc([N+](=O)[O-])ccc2s1 [#G43] |  |  |  |  | No significant difference | drastically reduced the glucan production | drastically reduced the glucan bands |  | 
3 | Oc1cc(O)cc(/C=C/c2ccc(O)c(O)c2)c1 [Piceatannol] | 564 ± 38 (≈ 138 µg/mL) | 564 ± 37.8 (≈ 138 µg/mL) | 564 ± 37.8 | greatly reduced glucan production |  |  |  | 37 | < 10
